Data published in ChEMBL document CHEMBL1201862, “PubChem BioAssay data set” (2004).
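Method: 48-hour compound exposure of cells in 96-well plates, five concentrations, linear interpolation of endpoints. Abbreviation: GI50, concentration required for 50% inhibition of growth.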 Calls of active or inactive are those of the source. No stated cut-off is given here; in the data, active = GI50 up to about 1.1 µM and inactive = higher.

Assays:
Experiment in all cases: NCI tumour cell line growth inhibition, 48 h
786-0 = tested on: 786-0
ACHN = tested on: ACHN
DU-145 = tested on: DU-145
HCT-116 = tested on: HCT-116
HCT-15 = tested on: HCT-15
HOP-92 = tested on: HOP-92
LOX IMVI = tested on: LOX IMVI
MCF7 = tested on: MCF7
MDA-MB-231 = tested on: MDA-MB-231
MDA-N = tested on: MDA-N
NCI-H522 = tested on: NCI-H522
OVCAR-4 = tested on: OVCAR-4
SF-539 = tested on: SF-539
SK-MEL-28 = tested on: SK-MEL-28
SK-MEL-5 = tested on: SK-MEL-5
SNB-75 = tested on: SNB-75
SR = tested on: SR
TK-10 = tested on: TK-10
UACC-257 = tested on: UACC-257
UO-31 = tested on: UO-31

Row | Structure (SMILES) | GI50 (786-0) | GI50 (ACHN) | GI50 (DU-145) | GI50 (HCT-116) | GI50 (HCT-15) [µM] | GI50 (HOP-92) | GI50 (LOX IMVI) | GI50 (MCF7) | GI50 (MDA-MB-231) | GI50 (MDA-N) | GI50 (NCI-H522) | GI50 (OVCAR-4) | GI50 (SF-539) | GI50 (SK-MEL-28) | GI50 (SK-MEL-5) | GI50 (SNB-75) | GI50 (SR) | GI50 (TK-10) | GI50 (UACC-257) | GI50 (UO-31)
1 | Cc1ccc(S(=O)(=O)NCc2cccc([N+](=O)[O-])c2)cc1 | > 100 µM (inactive) | > 100 µM (inactive) | > 100 µM (inactive) | > 100 µM (inactive) | > 100 | > 100 µM (inactive) | > 100 µM (inactive) | > 100 µM (inactive) | > 100 µM (inactive) | > 100 µM (inactive) | 64.6 µM (inactive) | > 100 µM (inactive) | > 100 µM (inactive) | > 100 µM (inactive) | > 100 µM (inactive) | > 100 µM (inactive) | 5.3 µM (inactive) | > 100 µM (inactive) | 75.9 µM (inactive) | 
2 | O=c1[nH]c(=O)n(C2OC(CO)C(O)C2O)c2ncc(-c3ccc(-c4ccccc4)cc3)nc12 (configuration not stated) | > 20 µM (inactive) | > 20 µM (inactive) | > 20 µM (inactive) | > 20 µM (inactive) | > 20 | > 20 µM (inactive) | > 20 µM (inactive) | > 20 µM (inactive) | > 20 µM (inactive) | > 20 µM (inactive) | > 20 µM (inactive) | > 20 µM (inactive) | > 20 µM (inactive) |  | > 20 µM (inactive) | > 20 µM (inactive) | > 20 µM (inactive) | > 20 µM (inactive) | > 20 µM (inactive) | > 20 µM (inactive)
3 | COc1cc(S(=O)(=O)Nc2nc(-c3ccc(/N=C/c4ccccc4O)cc3)cs2)ccc1Cl | 48.2 µM (inactive) | 41.7 µM (inactive) | 69.2 µM (inactive) | 29.4 µM (inactive) | 31.6 | 29 µM (inactive) | 47 µM (inactive) | 27.8 µM (inactive) | 36.5 µM (inactive) | 30.5 µM (inactive) | 33.7 µM (inactive) | 45.6 µM (inactive) | 39.4 µM (inactive) | 65.2 µM (inactive) | 26 µM (inactive) | 51.1 µM (inactive) | 34.7 µM (inactive) | 74.3 µM (inactive) | 35.9 µM (inactive) | 44.2 µM (inactive)
4 | C[C@@H](NC(=O)c1ccc(CNC(=O)/C=C/c2cccc(Oc3ccccc3)c2)cc1)c1ccccc1 | 13.9 µM (inactive) | 12.5 µM (inactive) | > 100 µM (inactive) | > 69.3 µM (inactive) | > 100 | 59.7 µM (inactive) | > 100 µM (inactive) | 97.1 µM (inactive) | > 100 µM (inactive) | > 100 µM (inactive) | > 66.7 µM (inactive) | > 100 µM (inactive) | 12.2 µM (inactive) | > 100 µM (inactive) | 99.8 µM (inactive) | 6.18 µM (inactive) | > 100 µM (inactive) | 24.9 µM (inactive) | 55.7 µM (inactive) | 10.7 µM (inactive)
5 | CC(=O)CC(OC(C)=O)C1=CCC2C(CC1C)OC(=O)C2C (configuration not stated) | > 100 µM (inactive) | > 100 µM (inactive) | > 100 µM (inactive) | > 100 µM (inactive) | > 100 | > 100 µM (inactive) | 88.5 µM (inactive) | > 100 µM (inactive) | > 100 µM (inactive) | > 100 µM (inactive) | > 100 µM (inactive) | > 100 µM (inactive) | > 100 µM (inactive) | > 100 µM (inactive) | > 100 µM (inactive) | > 100 µM (inactive) | 78.9 µM (inactive) | > 100 µM (inactive) | > 100 µM (inactive) | 
6 | OCC(CCc1ccccc1I)C1=CCC2(CC1)OCCO2 (configuration not stated) | 19.9 µM (inactive) | 28.7 µM (inactive) | 19.5 µM (inactive) |  | 21.9 | 12.4 µM (inactive) | 14.9 µM (inactive) | 23.3 µM (inactive) | 23.9 µM (inactive) | 18.2 µM (inactive) | 15.2 µM (inactive) | 18.9 µM (inactive) | 17.6 µM (inactive) | 17.7 µM (inactive) | 14.6 µM (inactive) | 19.4 µM (inactive) | 45.6 µM (inactive) | 23.5 µM (inactive) | 21.6 µM (inactive) | 17.8 µM (inactive)
7 | COc1ccc(C(=O)N/N=C2\C(=O)c3c(C)cc(C)cc3CC2(C)C)cc1 | 18.6 µM (inactive) | 24.1 µM (inactive) | 24.2 µM (inactive) | 17.1 µM (inactive) | 22.8 | 14.9 µM (inactive) | 17.7 µM (inactive) | 16.6 µM (inactive) | 19.7 µM (inactive) | 19.3 µM (inactive) | 15.3 µM (inactive) | 27 µM (inactive) | 20.5 µM (inactive) | 19.7 µM (inactive) | 16.7 µM (inactive) | 21.4 µM (inactive) | 18.5 µM (inactive) | 54.2 µM (inactive) | 29.8 µM (inactive) | 
8 | COc1ccc2nccc(NCCCN3CCN(CCCNc4ccnc5ccc(OC)cc45)CC3)c2c1 | 0.582 µM (active) | 1.45 µM (inactive) | 0.508 µM (active) | 0.221 µM (active) | 11.8 | 0.226 µM (active) | 0.272 µM (active) | 0.0403 µM (active) | 0.357 µM (active) | 0.0881 µM (active) | 0.0334 µM (active) | 1.04 µM (active) | 0.173 µM (active) | 1.09 µM (active) | 1.06 µM (active) | 0.543 µM (active) | 0.505 µM (active) | 5.31 µM (inactive) | 1.04 µM (active) | 8.13 µM (inactive)
9 | COC(=O)C(Cc1ccccc1)NP(=O)(O)OCC1OC(n2cc(I)c(=O)[nH]c2=O)CC1O (configuration not stated) | > 100 µM (inactive) | > 100 µM (inactive) | > 100 µM (inactive) | > 100 µM (inactive) | > 100 | > 100 µM (inactive) | > 100 µM (inactive) | > 100 µM (inactive) | > 100 µM (inactive) | > 100 µM (inactive) | > 100 µM (inactive) | > 100 µM (inactive) | > 100 µM (inactive) | > 100 µM (inactive) | > 100 µM (inactive) | > 100 µM (inactive) | > 100 µM (inactive) | > 100 µM (inactive) | > 100 µM (inactive) | > 100 µM (inactive)
10 | O=C1Nc2cccc(Cl)c2/C1=C\c1c(Cl)nc2n1CCS2 | > 100 µM (inactive) | > 100 µM (inactive) | > 100 µM (inactive) | > 100 µM (inactive) | 96.6 | 56.9 µM (inactive) | > 100 µM (inactive) | 8.43 µM (inactive) | > 100 µM (inactive) | 45.6 µM (inactive) | > 100 µM (inactive) |  | 89.1 µM (inactive) | > 100 µM (inactive) | > 100 µM (inactive) | > 100 µM (inactive) | > 100 µM (inactive) | 60.7 µM (inactive) | > 100 µM (inactive) | > 100 µM (inactive)
11 | Cc1ccc(/C=N/Nc2ccc3ccccc3n2)s1 | 18.8 µM (inactive) | 17.3 µM (inactive) | > 10 µM (inactive) | 7.78 µM (inactive) | 12 | 19.1 µM (inactive) | 17.1 µM (inactive) | 17.5 µM (inactive) | 15.5 µM (inactive) | 13.4 µM (inactive) | 15.7 µM (inactive) | 20.7 µM (inactive) | 83.4 µM (inactive) | 17.2 µM (inactive) | 9.4 µM (inactive) | > 100 µM (inactive) | 22.2 µM (inactive) | 22.1 µM (inactive) | 6.01 µM (inactive) | > 100 µM (inactive)
12 | CCc1cccc(CC)c1Nc1nc(-c2ccccc2-c2ccccc2)cs1 | > 100 µM (inactive) | > 100 µM (inactive) | > 100 µM (inactive) | 51.2 µM (inactive) | 94.2 | 46.6 µM (inactive) | > 100 µM (inactive) | 66.2 µM (inactive) | > 100 µM (inactive) | 50.8 µM (inactive) | 84.7 µM (inactive) | > 100 µM (inactive) | > 100 µM (inactive) | > 100 µM (inactive) | 79.1 µM (inactive) | 29.5 µM (inactive) | 52.1 µM (inactive) | 82.2 µM (inactive) | > 100 µM (inactive) | 64.4 µM (inactive)
13 | Nc1nnc(-c2ccco2)c(-c2ccco2)n1 | > 100 µM (inactive) | > 100 µM (inactive) | > 100 µM (inactive) | > 100 µM (inactive) | > 100 | > 100 µM (inactive) |  | > 100 µM (inactive) | > 100 µM (inactive) | > 100 µM (inactive) | > 100 µM (inactive) | > 100 µM (inactive) | > 100 µM (inactive) | > 100 µM (inactive) | > 100 µM (inactive) | 86.9 µM (inactive) | > 100 µM (inactive) | > 100 µM (inactive) | > 100 µM (inactive) | 49.9 µM (inactive)
14 | CNC(=O)OCc1c(COC(=O)NC)c(-c2ccc(Cl)c(Cl)c2)n2c1SCC2 | 16.7 µM (inactive) | 3.61 µM (inactive) | 17.2 µM (inactive) | 11.5 µM (inactive) | 13 | 10.6 µM (inactive) | 12.4 µM (inactive) | 13 µM (inactive) | 10.8 µM (inactive) | 18.5 µM (inactive) | 8.85 µM (inactive) |  | 15.5 µM (inactive) | 10.8 µM (inactive) | 13.5 µM (inactive) | 8.77 µM (inactive) | 2.33 µM (inactive) | 2.86 µM (inactive) | 10.4 µM (inactive) | 7.46 µM (inactive)
